17 compounds from US12365850B2, “Water-miscible functional fluid, undiluted stock of water-miscible functional fluid, sterilizer for water-miscible functional fluid, and method of sterilizing water-miscible function fluid” (priority 2020, dated 2025) can be followed below.

Read-outs that look alike come from different tables or passages of the source.

A short description of data set [1]: pH drop suppression test of water-miscible cutting fluid (circulation and blue LED irradiation). The data set is classed as physicochemical.
Data set [2] relates to bacteria. In words: Photosterilization test of neutral photosensitizers (bacterial count after light irradiation). The data set is classed as cell-based.
The mark [3] stands for this setting: 100%×(pH at preparation−pH after continuing use)/(pH at preparation), riboflavin cutting fluid with the named antioxidant.
The mark [4] stands for this setting: class by pH change rate, riboflavin cutting fluid with the named antioxidant.
Where [5] appears, read: riboflavin cutting fluid containing the named antioxidant, one month, Table 3 (same values as Table 2).
Setting [6] is: wavelength 450 nm, irradiance 100 μW/cm2, light intensity 10 J/cm2, photosensitizer 50 ppm (Lumichrome 20 ppm).
The mark [7] stands for this setting: wavelength 450 nm, irradiance 100 μW/cm2, light intensity 30 J/cm2, photosensitizer 50 ppm (Lumichrome 20 ppm).
Where [8] appears, read: wavelength 450 nm, irradiance 100 μW/cm2, light intensity 50 J/cm2, photosensitizer 50 ppm (Lumichrome 20 ppm).
Setting [9] is: wavelength 450 nm, irradiance 100 μW/cm2, light intensity 100 J/cm2, photosensitizer 50 ppm (Lumichrome 20 ppm).
Where [10] appears, read: wavelength 450 nm, irradiance 100 μW/cm2, light intensity 200 J/cm2, photosensitizer 50 ppm (Lumichrome 20 ppm).
The mark [11] stands for this setting: wavelength 450 nm, irradiance 100 μW/cm2, light intensity 400 J/cm2, photosensitizer 50 ppm (Lumichrome 20 ppm).

Turning to `NCC1CCCC(CN)C1` (stereo not shown) [1,3-Bis(aminomethyl)cyclohexane], the “pH change rate (%)” value in data set [1] (setting [3]) is 16.3%. Also, the “Evaluation of pH drop supression” value in data set [1] (setting [4]) was “B (pH change rate higher than 15% and at most 20%)”. The same compound came in with a pH change in data set [1] (setting [5]) of 1.4.
As to `Sc1nc2ccccc2[nH]1` [2-mercaptobenzimidazole], in data set [1], the “Evaluation of pH drop supression” value is “C (key: A: pH change rate of 15% or lower; B: pH change rate higher than 15% and at most 20%; C: pH change rate higher than 20% and at most 30%; D: pH change rate higher than 30%)”; the pH change is recorded as 2.4; the “pH change rate (%)” value is 27.9%.
Regarding `Cc1cc(C(C)(C)C)c(O)c(C(C)(C)C)c1` [BHT, butylated hydroxytoluene], in data set [1] (setting [3]), the “pH change rate (%)” value is 11.6%. In addition, the “Evaluation of pH drop supression” value in data set [1] (setting [4]) is given as “A (pH change rate of 15% or lower)”. Further, the pH change in data set [1] (setting [5]) was found to be 1.
In the case of `Cc1c(C)c2c(c(C)c1O)CC[C@@](C)(CCC[C@H](C)CCC[C@H](C)CCCC(C)C)O2` [D-α-tocopherol], in data set [1] (setting [3]), the “pH change rate (%)” value came to 7.0%. For the same compound, in data set [1] (setting [4]), the “Evaluation of pH drop supression” value is recorded as “A (pH change rate of 15% or lower)”. The compound also returned a pH change in data set [1] (setting [5]) of 0.6.
On the same counts, the results for `CC(O)CNCC(C)O` (stereo not shown) [Di-isopropanolamine] are 8.1%, “A (pH change rate of 15% or lower)” and 0.7.
On the same counts, the results for `OCCNCCO` [Diethanolamine] are 8.1%, “A (pH change rate of 15% or lower)” and 0.7.
As for `O=C([O-])CN(CCN(CC(=O)[O-])CC(=O)O)CC(=O)O.[Na+].[Na+]` [Disodium edetate], in data set [1], the “Evaluation of pH drop supression” value is “A (key: A: pH change rate of 15% or lower; B: pH change rate higher than 15% and at most 20%; C: pH change rate higher than 20% and at most 30%; D: pH change rate higher than 30%)”; the pH change is recorded as 0.8; the “pH change rate (%)” value is 9.3%.
In the case of `Cc1cc2nc3c(=O)[nH]c(=O)nc-3n(C[C@H](O)[C@H](O)[C@H](O)CO)c2cc1C` [Example 1, Riboflavin], in data set [2] (result in words), the “change in the bacterial count due to the light irradiation” value is recorded as “a decrease in the bacterial count was found”. In addition, the Bacterial count result in data set [2] (wavelength 275 nm, irradiance 100 μW/cm2, light intensity 10 J/cm2, photosensitizer 50 ppm) is “++ (bacterial count was 1.0×10^6 CFU/ml to 1.4×10^7 CFU/ml)”; in data set [2] (wavelength 275 nm, irradiance 100 μW/cm2, light intensity 30 J/cm2, photosensitizer 50 ppm), “++ (bacterial count was 1.0×10^6 CFU/ml to 1.4×10^7 CFU/ml)”; in data set [2] (wavelength 275 nm, irradiance 100 μW/cm2, light intensity 50 J/cm2, photosensitizer 50 ppm), “+ (bacterial count was at least 1.0×10^2 CFU/ml and less than 1.0×10^6 CFU/ml)”; in data set [2] (wavelength 275 nm, irradiance 100 μW/cm2, light intensity 100 J/cm2, photosensitizer 50 ppm), “+ (bacterial count was at least 1.0×10^2 CFU/ml and less than 1.0×10^6 CFU/ml)”; in data set [2] (wavelength 275 nm, irradiance 100 μW/cm2, light intensity 200 J/cm2, photosensitizer 50 ppm), “+ (bacterial count was at least 1.0×10^2 CFU/ml and less than 1.0×10^6 CFU/ml)”; in data set [2] (wavelength 275 nm, irradiance 100 μW/cm2, light intensity 400 J/cm2, photosensitizer 50 ppm) it was “− (bacterial count was at least 0 and less than 1.0×10^2 CFU/mil)”. Also, the Bacterial count entry in data set [2] (wavelength 380 nm, irradiance 1200 μW/cm2, light intensity 10 J/cm2, photosensitizer 50 ppm) is “++ (bacterial count was 1.0×10^6 CFU/ml to 1.4×10^7 CFU/ml)”; in data set [2] (wavelength 380 nm, irradiance 1200 μW/cm2, light intensity 30 J/cm2, photosensitizer 50 ppm), “++ (bacterial count was 1.0×10^6 CFU/ml to 1.4×10^7 CFU/ml)”; in data set [2] (wavelength 380 nm, irradiance 1200 μW/cm2, light intensity 50 J/cm2, photosensitizer 50 ppm), “++ (bacterial count was 1.0×10^6 CFU/ml to 1.4×10^7 CFU/ml)”; in data set [2] (wavelength 380 nm, irradiance 1200 μW/cm2, light intensity 100 J/cm2, photosensitizer 50 ppm), “+ (bacterial count was at least 1.0×10^2 CFU/ml and less than 1.0×10^6 CFU/ml)”; in data set [2] (wavelength 380 nm, irradiance 1200 μW/cm2, light intensity 200 J/cm2, photosensitizer 50 ppm) it was “+ (bacterial count was at least 1.0×10^2 CFU/ml and less than 1.0×10^6 CFU/ml)”; in data set [2] (wavelength 380 nm, irradiance 1200 μW/cm2, light intensity 400 J/cm2, photosensitizer 50 ppm), “+ (bacterial count was at least 1.0×10^2 CFU/ml and less than 1.0×10^6 CFU/ml)”. Besides, the Bacterial count entry in data set [2] (setting [6]) was “++ (bacterial count was 1.0×10^6 CFU/ml to 1.4×10^7 CFU/ml)”; in data set [2] (setting [7]), “+ (bacterial count was at least 1.0×10^2 CFU/ml and less than 1.0×10^6 CFU/ml)”; in data set [2] (setting [8]) it was “+ (bacterial count was at least 1.0×10^2 CFU/ml and less than 1.0×10^6 CFU/ml)”; in data set [2] (setting [9]), “+ (bacterial count was at least 1.0×10^2 CFU/ml and less than 1.0×10^6 CFU/ml)”; in data set [2] (setting [10]), “− (bacterial count was at least 0 and less than 1.0×10^2 CFU/mil)”; in data set [2] (setting [11]) it was “− (bacterial count was at least 0 and less than 1.0×10^2 CFU/mil)”. The Bacterial count result in data set [2] (wavelength 500 nm, irradiance 100 μW/cm2, light intensity 10 J/cm2, photosensitizer 50 ppm) was “++ (bacterial count was 1.0×10^6 CFU/ml to 1.4×10^7 CFU/ml)”; in data set [2] (wavelength 500 nm, irradiance 100 μW/cm2, light intensity 30 J/cm2, photosensitizer 50 ppm), “++ (bacterial count was 1.0×10^6 CFU/ml to 1.4×10^7 CFU/ml)”; in data set [2] (wavelength 500 nm, irradiance 100 μW/cm2, light intensity 50 J/cm2, photosensitizer 50 ppm), “++ (bacterial count was 1.0×10^6 CFU/ml to 1.4×10^7 CFU/ml)”; in data set [2] (wavelength 500 nm, irradiance 100 μW/cm2, light intensity 100 J/cm2, photosensitizer 50 ppm), “++ (bacterial count was 1.0×10^6 CFU/ml to 1.4×10^7 CFU/ml)”; in data set [2] (wavelength 500 nm, irradiance 100 μW/cm2, light intensity 200 J/cm2, photosensitizer 50 ppm) it was “+ (bacterial count was at least 1.0×10^2 CFU/ml and less than 1.0×10^6 CFU/ml)”; in data set [2] (wavelength 500 nm, irradiance 100 μW/cm2, light intensity 400 J/cm2, photosensitizer 50 ppm), “+ (bacterial count was at least 1.0×10^2 CFU/ml and less than 1.0×10^6 CFU/ml)”.
Consider `Cc1cc2nc3[nH]c(=O)[nH]c(=O)c3nc2cc1C` [Example 2, Lumichrome], for which the Bacterial count result was “++ (bacterial count was 1.0×10^6 CFU/ml to 1.4×10^7 CFU/ml)” in data set [2] (setting [6]); “+ (bacterial count was at least 1.0×10^2 CFU/ml and less than 1.0×10^6 CFU/ml)” in data set [2] (setting [7]); “− (bacterial count was at least 0 and less than 1.0×10^2 CFU/mil)” in data set [2] (setting [8]); “− (bacterial count was at least 0 and less than 1.0×10^2 CFU/mil)” in data set [2] (setting [9]); “− (bacterial count was at least 0 and less than 1.0×10^2 CFU/mil)” in data set [2] (setting [10]); “− (bacterial count was at least 0 and less than 1.0×10^2 CFU/mil)” in data set [2] (setting [11]).
On to `CC(C)(C)c1cc(CCC(=O)OCC(COC(=O)CCc2cc(C(C)(C)C)c(O)c(C(C)(C)C)c2)(COC(=O)CCc2cc(C(C)(C)C)c(O)c(C(C)(C)C)c2)COC(=O)CCc2cc(C(C)(C)C)c(O)c(C(C)(C)C)c2)cc(C(C)(C)C)c1O` [Irganox 1010], for which the “pH change rate (%)” value in data set [1] (setting [3]) came to 5.8%. Further, in data set [1] (setting [4]), the “Evaluation of pH drop supression” value is listed as “A (pH change rate of 15% or lower)”. Moreover, the pH change in data set [1] (setting [5]) is recorded as 0.5.
On the same counts, the results for `CC(C)(C)c1cc(Cn2c(=O)n(Cc3cc(C(C)(C)C)c(O)c(C(C)(C)C)c3)c(=O)n(Cc3cc(C(C)(C)C)c(O)c(C(C)(C)C)c3)c2=O)cc(C(C)(C)C)c1O` [Irganox 3114] are 9.3%, “A (pH change rate of 15% or lower)” and 0.8.
On to `NCCO` [Monoethanol amine], for which the “pH change rate (%)” value in data set [1] (setting [3]) stood at 17.4%. In addition, in data set [1] (setting [4]), the “Evaluation of pH drop supression” value is “B (pH change rate higher than 15% and at most 20%)”. Moreover, the pH change in data set [1] (setting [5]) turned out to be 1.5.
For `CC(O)CN` (stereo not shown) [Monoisopropanolamine], in data set [1] (setting [3]), the “pH change rate (%)” value turned out to be 19.8%. The “Evaluation of pH drop supression” value in data set [1] (setting [4]) is “B (pH change rate higher than 15% and at most 20%)”. In data set [1] (setting [5]), this compound gave a pH change of 1.7.
On to `CCC(C)Nc1ccc(NC(C)CC)cc1` (stereo not shown) [N,N′-Di-sec-butyl-1,4-phenylenediamine], for which the “pH change rate (%)” value in data set [1] (setting [3]) is 4.7%. Moreover, in data set [1] (setting [4]), the “Evaluation of pH drop supression” value is “A (pH change rate of 15% or lower)”. The compound also had a pH change in data set [1] (setting [5]) of 0.4.
As for `O=C1O[C@H]([C@@H](O)CO)C([O-])=C1O.[Na+]` [Sodium ascorbate], the “pH change rate (%)” value in data set [1] (setting [3]) turned out to be 24.4%. The “Evaluation of pH drop supression” value in data set [1] (setting [4]) was “C (pH change rate higher than 20% and at most 30%)”. In data set [1] (setting [5]), this compound yielded a pH change of 2.1.
With `CC(O)CN(CC(C)O)CC(C)O` (stereo not shown) [Triisopropanolamine], in data set [1], the “Evaluation of pH drop supression” value was “A (key: A: pH change rate of 15% or lower; B: pH change rate higher than 15% and at most 20%; C: pH change rate higher than 20% and at most 30%; D: pH change rate higher than 30%)”; the pH change is reported as 0.8; the “pH change rate (%)” value was found to be 9.3%.
As to `CC(C)(C)c1ccc(OP(Oc2ccc(C(C)(C)C)cc2C(C)(C)C)Oc2ccc(C(C)(C)C)cc2C(C)(C)C)c(C(C)(C)C)c1` [Tris(2,4-di-tert-butylphenyl) phosphite], in data set [1], the “Evaluation of pH drop supression” value was “A (key: A: pH change rate of 15% or lower; B: pH change rate higher than 15% and at most 20%; C: pH change rate higher than 20% and at most 30%; D: pH change rate higher than 30%)”; the pH change is 0.4; the “pH change rate (%)” value turned out to be 4.7%.
